Test results taken from patent EP0140395A1, “Water soluble derivatives of 1-(2-hydroxyethyl)-2-methyl-5-nitro-imidazole having therapeutical activity, process for its preparation and related pharmaceutical compositions” (Pietro Isnardi & C. Spa, priority 1983, dated 1985).
≈ marks a conversion by molar mass, not a printed value.

Tests used:
[1] = Toxicity (LD50) in the rat; settings: in vivo
Description: (§1) The compound of the invention has been pharmacologically tested.
(§2) As regards the toxicity the following results were found: […]

Kinetic tests in the rat = type: in vivo
Trichomonas vaginalis = test: Minimum inhibiting concentration in five strains, in comparison with metronidazole; type: cell-based; settings: for MIC: average over five strains of Trichomonas vaginalis, metronidazole as 1 mg/ml solution in dimethyl sulfoxide, compound of the invention as 1 mg/ml water solution
Protocol: The minimum inhibiting concentration (MIC) was investigated in five strains of Trichomonas vaginalis, in comparison with metronidazole.
Metronidazole was tested in form of a solution in dimethyl sulfoxide at a concentration of 1 mg/ml whereas the compound of the invention was tested in form of a water solution at a concentration of 1 mg/ml.

[2] = Solubility of the compound; type: physicochemical
[3] = Toxicity (LD50) in the mouse; settings: in vivo
Description: as §1, §2

Structure (SMILES) | LD50 ([1]; ip) [mg/kg] | LD50 ([1]; po, per os) [mg/kg] | conversion into metronidazole (Kinetic tests in the rat; in the organism and in acidic environment) | dose excreted (Kinetic tests in the rat; urine, after parenteral administration, read-out: urinary excretion) [%] | MIC (Trichomonas vaginalis) [µg/mL] | microbiological activity (Trichomonas vaginalis; preliminary tests, compared with metronidazole) | solubility in anhydrous alcohols, acetone and chloroform ([2]; anhydrous alcohols, acetone and chloroform) | solubility in water ([2]; water) | LD50 ([3]; ip) [mg/kg] | LD50 ([3]; po, per os) [mg/kg]
Cc1ncc([N+](=O)[O-])n1CCOC(=O)NCCCCC(N)C(=O)O (centres unmarked) [compound of the invention, N-(5-carboxy-5-aminopentan)-carbamic ester of 1-(2-hydroxyethyl)-2-methyl-5-nitro-imidazole] | 870 | 1620 | not converted into metronidazole neither in the organism nor in acidic environnment | < 30 | 2.5 (≈ 7.28 µM) | greater microbiological activity | insoluble | perfectly soluble in water | > 4000 | > 4000
Cc1ncc([N+](=O)[O-])n1CCO [metronidazole, 1-(2-hydroxyethyl)-2-methyl-5-nitro-imidazole] |  |  |  |  | 5 (≈ 29.2 µM) |  |  |  |  | 
